Reference: ChEMBL document CHEMBL1201862, “PubChem BioAssay data set” (2004)
Activity calls are given as the source filed them.

Key:
[1] = HepG2 cell cytotoxicity, dose response, cytotoxicity control, plate reader, cherry-pick, antagonist series (AID 743416); assay type: functional, cell-based
[2] = biological target: T1, DNA repair and recombination protein RAD54-like (Homo sapiens, UniProt Q92698); assay: inhibitors of human RAD54 branch migration, confirmation, biochemical, fluorescence, cherry-picked samples, dose series (AID 651657); assay type: functional
T1 sequence (Q92698 whole entry): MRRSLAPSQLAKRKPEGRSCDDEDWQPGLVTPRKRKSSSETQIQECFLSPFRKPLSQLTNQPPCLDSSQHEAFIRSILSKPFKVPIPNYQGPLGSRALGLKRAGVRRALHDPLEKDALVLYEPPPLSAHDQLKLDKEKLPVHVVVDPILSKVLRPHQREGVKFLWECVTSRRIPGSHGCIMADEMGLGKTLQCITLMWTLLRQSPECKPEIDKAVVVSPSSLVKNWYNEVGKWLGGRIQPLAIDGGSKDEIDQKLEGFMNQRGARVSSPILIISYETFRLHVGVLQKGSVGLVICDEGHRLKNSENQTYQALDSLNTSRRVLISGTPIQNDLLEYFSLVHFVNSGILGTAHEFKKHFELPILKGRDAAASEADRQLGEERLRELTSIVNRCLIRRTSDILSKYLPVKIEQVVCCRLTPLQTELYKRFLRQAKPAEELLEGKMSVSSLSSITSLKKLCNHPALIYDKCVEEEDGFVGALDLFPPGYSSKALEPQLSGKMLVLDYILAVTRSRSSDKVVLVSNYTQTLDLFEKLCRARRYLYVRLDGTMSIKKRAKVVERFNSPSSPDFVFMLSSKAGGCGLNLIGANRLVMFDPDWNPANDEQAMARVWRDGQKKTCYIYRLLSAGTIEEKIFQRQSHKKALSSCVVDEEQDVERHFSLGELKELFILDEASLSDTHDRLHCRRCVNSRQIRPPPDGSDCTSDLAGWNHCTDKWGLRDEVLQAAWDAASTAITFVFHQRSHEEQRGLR

INS1 = assay: beta cell apoptosis inhibitors, cytokine rescue, dose response, luminescence, retest (AID 449756); assay type: functional, cell-based; conditions: Rattus norvegicus;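 further: cell death triggered by IL-1 beta plus TNF-alpha plus IFN-gamma mixture; protective hits raise ATP signal compared with cytokine alone wells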
[3] = HepG2 cell cytotoxicity, dose response, cytotoxicity control, ATP luminescence, cherry-pick, activator set 2 (AID 1053143); assay type: functional, cell-based
[4] = LGR2 antagonists, dose response, cell-based, HEK293, CRE-luciferase reporter, cherry pick, set 2 (AID 743343); assay type: functional;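 further: transfected cells were stimulated with diluted bursicon conditioned medium after compound addition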
[5] = HEK293 cell cytotoxicity, dose response, cytotoxicity control, plate reader, cherry-picked samples (AID 743446); assay type: functional, cell-based
[6] = MC4R antagonists, dose response, counter-screen for LGR2 antagonist project, cell-based, plate reader, cherry pick (AID 743444); assay type: functional;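 further: transfected HEK 293 cells stimulated with alpha-MSH peptide; potency of inhibitors of the alpha-MSH evoked signal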
[7] = A549 cell cytotoxicity, dose response, cytotoxicity control, plate reader, cherry-pick, antagonist series (AID 743412); assay type: functional, cell-based
[8] = biological target: T2, Heat shock factor protein 1 (Mus musculus, UniProt P38532); assay: inhibition of MG132-induced HSE-luciferase signal, confirmation, cell-based, NIH3T3, luminescence, dose retest (AID 2382); assay type: functional;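 further: NIH3T3 fibroblasts with HSF1-driven luciferase reporter stressed by proteasome inhibitor MG132; luminescence from HSF1-driven luciferase expression after 8 hours of MG132 stress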
T2 sequence (P38532 whole entry): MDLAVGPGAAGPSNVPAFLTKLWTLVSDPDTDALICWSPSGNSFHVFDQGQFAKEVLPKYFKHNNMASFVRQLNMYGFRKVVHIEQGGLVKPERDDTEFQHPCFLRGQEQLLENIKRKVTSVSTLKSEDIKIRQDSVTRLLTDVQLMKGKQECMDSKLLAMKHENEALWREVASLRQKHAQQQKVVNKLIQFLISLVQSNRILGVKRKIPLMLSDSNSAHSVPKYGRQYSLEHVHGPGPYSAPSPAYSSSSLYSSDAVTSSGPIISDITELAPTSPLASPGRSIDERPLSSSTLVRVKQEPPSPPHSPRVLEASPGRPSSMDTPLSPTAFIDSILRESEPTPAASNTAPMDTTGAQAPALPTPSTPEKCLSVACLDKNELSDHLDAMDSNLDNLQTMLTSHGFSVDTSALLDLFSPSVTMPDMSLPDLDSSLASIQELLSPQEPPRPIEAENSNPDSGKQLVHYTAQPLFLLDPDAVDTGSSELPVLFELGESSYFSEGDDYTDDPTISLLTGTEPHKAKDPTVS

[9] = biological target: T3, Corticotropin-releasing factor receptor 2/Corticotropin-releasing factor-binding protein (Homo sapiens, UniProt P24387+Q13324); assay: activators of CRF receptor 2 with binding protein – uHTS hits, confirmation (AID 602473); assay type: functional; conditions: read-out: EC50_Mean
T3 sequence (Q13324 whole entry): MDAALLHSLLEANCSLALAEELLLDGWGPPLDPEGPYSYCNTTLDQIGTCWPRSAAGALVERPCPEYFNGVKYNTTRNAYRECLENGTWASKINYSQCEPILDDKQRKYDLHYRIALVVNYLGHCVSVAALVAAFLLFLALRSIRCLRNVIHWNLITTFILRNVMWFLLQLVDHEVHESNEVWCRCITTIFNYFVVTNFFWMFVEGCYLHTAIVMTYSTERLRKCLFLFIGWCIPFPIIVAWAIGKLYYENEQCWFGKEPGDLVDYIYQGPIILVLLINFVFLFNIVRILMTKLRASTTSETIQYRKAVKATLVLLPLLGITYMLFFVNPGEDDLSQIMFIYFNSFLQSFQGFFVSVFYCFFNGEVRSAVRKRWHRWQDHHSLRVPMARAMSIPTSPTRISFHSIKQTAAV
T3 sequence (P24387 whole entry): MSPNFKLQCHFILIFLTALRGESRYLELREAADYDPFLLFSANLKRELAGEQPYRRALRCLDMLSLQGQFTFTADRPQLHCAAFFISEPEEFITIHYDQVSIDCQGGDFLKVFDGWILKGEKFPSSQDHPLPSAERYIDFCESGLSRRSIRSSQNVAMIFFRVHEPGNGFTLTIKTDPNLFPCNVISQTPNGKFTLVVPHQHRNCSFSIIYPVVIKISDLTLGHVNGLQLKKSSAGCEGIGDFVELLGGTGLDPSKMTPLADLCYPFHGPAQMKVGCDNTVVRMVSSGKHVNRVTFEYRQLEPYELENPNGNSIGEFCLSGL

[10] = biological target: T3, Corticotropin-releasing factor receptor 2/Corticotropin-releasing factor-binding protein; assay: Dose Response confirmation of uHTS hits for small molecule antagonists of the CRF-binding protein and CRF-R2 receptor complex.; assay type: functional; conditions: read-out: IC50_Mean
[11] = biological target: T4, Low molecular weight phosphotyrosine protein phosphatase (Homo sapiens, UniProt P24666); assay type: functional; conditions: read-out: IC50_Mean
T4 sequence (P24666 whole entry): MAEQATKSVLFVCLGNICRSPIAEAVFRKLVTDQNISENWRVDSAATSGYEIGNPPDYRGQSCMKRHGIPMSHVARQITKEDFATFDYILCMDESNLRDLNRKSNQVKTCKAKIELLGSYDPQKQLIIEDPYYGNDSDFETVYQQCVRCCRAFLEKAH

[12] = biological target: T4, Low molecular weight phosphotyrosine protein phosphatase; assay type: functional; conditions: read-out: IC50_Mean; remark: listed apart in the source
[13] = biological target: Heat shock protein HSP 90-alpha (Homo sapiens, UniProt P07900); assay type: functional, organism-based
[14] = biological target: T5, Histone-lysine N-methyltransferase NSD2 (Homo sapiens, UniProt O96028); assay type: biochemical
T5 sequence (O96028 whole entry): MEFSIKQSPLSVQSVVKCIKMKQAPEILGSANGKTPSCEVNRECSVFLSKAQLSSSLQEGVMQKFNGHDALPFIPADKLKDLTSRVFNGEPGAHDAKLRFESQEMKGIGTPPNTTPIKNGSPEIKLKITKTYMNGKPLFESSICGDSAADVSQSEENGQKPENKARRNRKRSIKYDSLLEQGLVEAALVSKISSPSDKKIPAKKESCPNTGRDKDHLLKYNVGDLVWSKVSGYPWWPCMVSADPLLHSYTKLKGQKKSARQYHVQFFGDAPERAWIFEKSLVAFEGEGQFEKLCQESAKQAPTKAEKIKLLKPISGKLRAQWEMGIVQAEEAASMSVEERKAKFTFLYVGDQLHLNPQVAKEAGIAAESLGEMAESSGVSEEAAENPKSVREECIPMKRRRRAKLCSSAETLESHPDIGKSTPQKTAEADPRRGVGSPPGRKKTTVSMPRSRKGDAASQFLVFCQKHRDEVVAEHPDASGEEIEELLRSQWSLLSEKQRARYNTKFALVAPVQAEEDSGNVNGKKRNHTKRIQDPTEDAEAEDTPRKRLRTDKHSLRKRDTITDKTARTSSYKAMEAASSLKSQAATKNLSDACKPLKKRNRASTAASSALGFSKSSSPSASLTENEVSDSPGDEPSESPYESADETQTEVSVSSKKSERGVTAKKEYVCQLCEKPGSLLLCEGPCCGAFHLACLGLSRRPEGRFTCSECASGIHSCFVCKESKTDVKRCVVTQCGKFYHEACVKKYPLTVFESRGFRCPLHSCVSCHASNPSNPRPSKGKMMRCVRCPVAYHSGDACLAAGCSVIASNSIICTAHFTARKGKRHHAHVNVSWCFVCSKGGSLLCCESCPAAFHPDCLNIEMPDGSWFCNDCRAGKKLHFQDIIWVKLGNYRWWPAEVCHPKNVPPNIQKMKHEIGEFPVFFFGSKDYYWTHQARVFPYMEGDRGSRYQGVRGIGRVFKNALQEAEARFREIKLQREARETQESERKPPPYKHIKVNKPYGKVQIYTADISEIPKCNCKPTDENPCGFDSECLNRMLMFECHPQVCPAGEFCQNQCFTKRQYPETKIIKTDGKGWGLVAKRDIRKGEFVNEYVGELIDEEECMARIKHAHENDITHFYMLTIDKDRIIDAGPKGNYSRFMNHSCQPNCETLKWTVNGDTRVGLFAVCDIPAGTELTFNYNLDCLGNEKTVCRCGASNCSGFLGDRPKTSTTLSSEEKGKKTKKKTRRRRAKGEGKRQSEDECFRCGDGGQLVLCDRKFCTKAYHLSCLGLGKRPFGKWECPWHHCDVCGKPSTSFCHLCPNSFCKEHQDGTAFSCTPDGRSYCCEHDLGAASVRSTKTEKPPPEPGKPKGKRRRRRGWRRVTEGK

[15] = biological target: T6, Probable nicotinate-nucleotide adenylyltransferase (Staphylococcus aureus (strain N315), UniProt P65502); assay type: functional, Staphylococcus aureus subsp. aureus N315; conditions: read-out: IC50_Mean;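 on IC50 Mean: confirmatory dose-response retesting of NadD inhibitor hits first found in an ultra-high-throughput screen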
[16] = biological target: T6, Probable nicotinate-nucleotide adenylyltransferase; assay type: functional, Staphylococcus aureus subsp. aureus N315

T6 sequence (P65502 whole entry): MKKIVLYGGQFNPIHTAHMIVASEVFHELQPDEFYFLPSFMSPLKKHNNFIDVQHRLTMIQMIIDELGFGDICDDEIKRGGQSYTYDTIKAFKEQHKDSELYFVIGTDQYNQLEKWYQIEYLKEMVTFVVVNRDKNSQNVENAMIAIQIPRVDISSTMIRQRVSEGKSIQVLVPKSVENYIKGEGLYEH

CC(=O)Nc1sc2c(c1-c1nc3ccccc3s1)CN(C(C)C)CC2
AC50 [1]: 3.52 µM (active)
AC50 [2]: 0.715 µM (active)
AC50 (INS1): 0.752 µM (active)
AC50 [3]: 12.5 µM (active)
AC50 [4]: 27.7 µM (active)
AC50 [5]: 25.7 µM (active)
AC50 [6]: 23.2 µM (active)
AC50 [7]: 2.35 µM (active)

Cc1[nH]c(=O)c(C#N)cc1-c1csc(-c2ccccc2)n1
EC50 [8]: > 195 µM (not active)
EC50 [9]: > 53 µM (inactive)
IC50 [10]: > 47.1 µM (inactive)
IC50 [11]: 67.8 µM (inactive)
IC50 [12]: 27 µM (inactive)

CC1CCCN(c2nc3ccsc3c(=O)s2)C1 (stereo not drawn)
AC50 [3]: > 52 µM (inactive)

CC1=NOC(=O)/C1=C\c1ccc(-c2ccc(Br)cc2)o1
AC50 [13]: 4.12 µM (active)
AC50 [14]: > 20 µM (inactive)

Cc1ccc(-c2cc(-c3ccccc3Cl)c(C#N)c(N)n2)o1
IC50 [15]: 7.76 µM (active)
IC50 [16]: 5.05 µM (active)
